Results reported in patent publication US9340590B2 (priority 2011, dated 2016).
Read-outs that look alike come from different tables or passages of the source. Positions of bridges follow the written chain, without caps; N, C: chain ends. Residues, ends and D or L forms follow the SMILES beside them.

Molecular target: hNav1.7 (Homo sapiens, UniProt Q15858)
Assay: cell-based

Chain of hNav1.7 (Q15858 whole entry, looked up): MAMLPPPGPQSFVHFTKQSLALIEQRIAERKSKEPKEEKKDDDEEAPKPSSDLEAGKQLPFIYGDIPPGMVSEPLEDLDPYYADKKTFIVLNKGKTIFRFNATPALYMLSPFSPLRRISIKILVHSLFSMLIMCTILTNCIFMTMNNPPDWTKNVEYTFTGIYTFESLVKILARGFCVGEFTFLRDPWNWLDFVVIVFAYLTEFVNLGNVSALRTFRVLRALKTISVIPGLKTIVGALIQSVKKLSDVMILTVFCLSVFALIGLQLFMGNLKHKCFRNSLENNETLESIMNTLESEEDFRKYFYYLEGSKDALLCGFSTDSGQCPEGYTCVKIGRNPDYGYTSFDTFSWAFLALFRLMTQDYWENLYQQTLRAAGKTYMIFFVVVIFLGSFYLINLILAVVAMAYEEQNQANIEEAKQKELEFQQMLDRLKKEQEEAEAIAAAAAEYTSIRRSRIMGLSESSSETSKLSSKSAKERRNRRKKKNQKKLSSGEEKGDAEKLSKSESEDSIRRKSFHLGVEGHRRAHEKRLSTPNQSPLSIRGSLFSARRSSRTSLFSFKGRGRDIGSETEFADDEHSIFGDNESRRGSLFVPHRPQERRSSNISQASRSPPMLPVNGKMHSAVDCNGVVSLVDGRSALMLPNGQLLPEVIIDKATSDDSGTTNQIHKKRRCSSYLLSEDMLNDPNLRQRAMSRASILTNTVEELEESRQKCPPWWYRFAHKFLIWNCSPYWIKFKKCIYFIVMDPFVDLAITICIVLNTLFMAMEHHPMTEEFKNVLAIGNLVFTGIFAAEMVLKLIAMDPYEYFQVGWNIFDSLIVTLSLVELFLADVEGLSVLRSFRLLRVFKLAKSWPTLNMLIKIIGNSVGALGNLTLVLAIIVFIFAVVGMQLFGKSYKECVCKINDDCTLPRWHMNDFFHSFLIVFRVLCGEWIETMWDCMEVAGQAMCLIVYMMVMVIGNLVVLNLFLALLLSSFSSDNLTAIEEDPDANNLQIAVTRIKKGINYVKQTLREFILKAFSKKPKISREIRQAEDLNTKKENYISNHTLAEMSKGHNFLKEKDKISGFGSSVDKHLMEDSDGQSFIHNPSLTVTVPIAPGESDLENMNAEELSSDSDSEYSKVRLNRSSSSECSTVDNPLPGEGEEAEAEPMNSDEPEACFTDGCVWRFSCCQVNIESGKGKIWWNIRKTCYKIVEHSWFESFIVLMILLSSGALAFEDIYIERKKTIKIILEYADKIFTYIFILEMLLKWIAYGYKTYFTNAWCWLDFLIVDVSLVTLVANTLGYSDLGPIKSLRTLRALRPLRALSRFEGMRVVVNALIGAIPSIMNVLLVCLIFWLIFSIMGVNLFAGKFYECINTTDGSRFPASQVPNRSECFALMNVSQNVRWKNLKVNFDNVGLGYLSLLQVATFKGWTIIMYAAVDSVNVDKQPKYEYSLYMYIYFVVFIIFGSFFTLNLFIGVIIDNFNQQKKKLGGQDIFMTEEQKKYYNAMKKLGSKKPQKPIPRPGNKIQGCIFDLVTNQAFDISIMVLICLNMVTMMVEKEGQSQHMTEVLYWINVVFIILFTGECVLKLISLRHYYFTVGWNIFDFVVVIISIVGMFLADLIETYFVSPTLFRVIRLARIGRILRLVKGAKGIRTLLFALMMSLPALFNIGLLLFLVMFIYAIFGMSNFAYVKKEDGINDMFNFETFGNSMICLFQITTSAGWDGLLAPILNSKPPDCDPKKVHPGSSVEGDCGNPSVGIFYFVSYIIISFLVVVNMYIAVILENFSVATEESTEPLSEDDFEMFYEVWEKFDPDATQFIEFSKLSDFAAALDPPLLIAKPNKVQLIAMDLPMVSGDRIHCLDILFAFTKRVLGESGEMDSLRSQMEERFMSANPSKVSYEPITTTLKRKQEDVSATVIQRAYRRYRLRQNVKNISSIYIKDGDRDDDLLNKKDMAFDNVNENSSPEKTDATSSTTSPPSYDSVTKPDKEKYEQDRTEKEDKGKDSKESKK

Structure (SMILES) | IC50 (Nav1.7 Use IC50) | IC50 (read-out: Nav1.7 Use IC50)
CC[C@@H]1NC(=O)CNC(=O)[C@H](CC(C)C)NC(=O)[C@@H](NC(=O)[C@@H](N)CC(=O)O)CSSC[C@@H]2NC(=O)[C@@H]3CSSC[C@@H](C(=O)N[C@@H](CCCCN)C(=O)N[C@@H](Cc4ccc(O)cc4)C(=O)N[C@H](C(=O)N[C@@H](Cc4ccccc4)C(N)=O)C(C)C)NC(=O)[C@H](Cc4c[nH]c5ccccc45)NC(=O)[C@H](CCCCN)NC(=O)[C@H](Cc4cnc[nH]4)NC(=O)[C@H]([C@@H](C)O)NC(=O)[C@H](CCCNC(=N)N)NC(=O)[C@H](CO)NC(=O)[C@H](CSSC[C@H](NC(=O)[C@H](CCCCN)NC(=O)[C@H](CCCNC(=N)N)NC(=O)[C@H](CCSC)NC1=O)C(=O)N[C@@H]([C@@H](C)CC)C(=O)N1CCC[C@H]1C(=O)N[C@@H](CC(=O)O)C(=O)N[C@@H](CC(N)=O)C(=O)N[C@@H](CC(=O)O)C(=O)N[C@@H](CCCCN)C(=O)N3)NC(=O)[C@H](C(C)C)NC(=O)[C@H](CC(C)C)NC(=O)[C@H](CC(N)=O)NC(=O)[C@@H]1CCCN1C(=O)[C@H](CCCNC(=N)N)NC2=O [[2-Abu5]GpTx-1(1-34)] | 83 nM | –
CCCC[C@@H]1NC(=O)[C@H](C)NC(=O)CNC(=O)[C@H](CC(C)C)NC(=O)[C@@H](NC(=O)[C@@H](N)CC(=O)O)CSSC[C@@H]2NC(=O)[C@@H]3CSSC[C@@H](C(=O)N[C@@H](CCCCN)C(=O)N[C@@H](Cc4ccc(O)cc4)C(=O)N[C@H](C(=O)N[C@@H](Cc4ccccc4)C(N)=O)C(C)C)NC(=O)[C@H](Cc4c[nH]c5ccccc45)NC(=O)[C@H](CCCCN)NC(=O)[C@H](Cc4c[nH]cn4)NC(=O)[C@H]([C@@H](C)O)NC(=O)[C@H](CCCNC(=N)N)NC(=O)[C@H](CO)NC(=O)[C@H](CSSC[C@H](NC(=O)[C@H](CCCCN)NC(=O)[C@H](CCCNC(=N)N)NC1=O)C(=O)N[C@@H]([C@@H](C)CC)C(=O)N1CCC[C@H]1C(=O)N[C@@H](CC(=O)O)C(=O)N[C@@H](CC(N)=O)C(=O)N[C@@H](CC(=O)O)C(=O)N[C@@H](CCCCN)C(=O)N3)NC(=O)[C@H](C(C)C)NC(=O)[C@H](CC(C)C)NC(=O)[C@H](CC(N)=O)NC(=O)[C@@H]1CCCN1C(=O)[C@H](CCCNC(=N)N)NC2=O [[Ala5;Nle6]GpTx-1(1-34)] | – | 10 nM
CC[C@H](C)[C@@H]1NC(=O)[C@@H]2CSSC[C@@H]3NC(=O)[C@H](C(C)C)NC(=O)[C@H](CC(C)C)NC(=O)[C@H](CC(N)=O)NC(=O)[C@@H]4CCCN4C(=O)[C@H](CCCNC(=N)N)NC(=O)[C@H](CSSC[C@H](NC(=O)[C@@H](N)CC(=O)O)C(=O)N[C@@H](CC(C)C)C(=O)NCC(=O)N[C@@H](C)C(=O)N[C@@H](Cc4ccccc4)C(=O)N[C@@H](CCCNC(=N)N)C(=O)N[C@@H](CCCCN)C(=O)N2)NC(=O)[C@H](CSSC[C@@H](C(=O)N[C@@H](CCCCN)C(=O)N[C@@H](Cc2ccc(O)cc2)C(=O)N[C@H](C(=O)N[C@@H](Cc2ccccc2)C(N)=O)C(C)C)NC(=O)[C@H](Cc2c[nH]c4ccccc24)NC(=O)[C@H](CCCCN)NC(=O)[C@H](Cc2c[nH]cn2)NC(=O)[C@H](CC(C)C)NC(=O)[C@H](CCCNC(=N)N)NC(=O)[C@H](CO)NC3=O)NC(=O)[C@H](CCCCN)NC(=O)[C@H](CC(=O)O)NC(=O)[C@H](CC(N)=O)NC(=O)[C@H](CC(=O)O)NC(=O)[C@@H]2CCCN2C1=O [[Ala5;Phe6;Leu26]GpTx-1(1-34)] (H-DCLGAFRKCIPDNDKCCRPNLVCSRLHKWCKYVF-NH2; disulfide 2-17, 9-23, 16-30) | – | 4 nM
